Data: US20170209427A1, “USE OF LAQUINIMOD TO DELAY HUNTINGTON'S DISEASE PROGRESSION” (Teva Pharmaceutical Industries, Ltd., priority 2013, published 2017)

Legend:
clinical = test: clinical; design: species or system humans; details: human, in vivo
CYP3A4 = biological target: T1, CYP3A4 (Homo sapiens, UniProt P08684); test: Metabolism of laquinimod in the liver; type: in vivo; details: humans
T1 construct: from tissue; host or cells: human liver (in vivo)

patients with HD = test: Phase II randomized, double-blind, placebo-controlled clinical trial of laquinimod in Huntington's disease; type: in vivo, human
Method: A phase II, multi-centered, multinational, randomized, parallel-group, double-blinded, placebo-controlled study is conducted to evaluate the safety and efficacy of laquinimod (0.5, 1.0 and 1.5 mg/day) versus placebo in patients with HD.
This study includes 4 treatment arms, with approximately 100 patients per treatment arm and approximately 400 patients in total. The study is conducted in approximately 30 centers in Canada, USA and Europe.
The study population is comprised of patients with adult onset HD, with a cytosine-adenosine-guanine (CAG) repeat length between 40 and 49, inclusive. The basic eligibility criteria selects a population with symptoms of HD, as assessed by a Unified HD Rating Scale—Total Motor Score (UHDRS-TMS)>5, but with a largely retained functional capacity, as assessed with a Unified HD Rating Scale—Total Functional Capacity (UHDRS-TFC) score≧8.
The dose levels of laquinimod are 0.5 mg/day, 1.0 mg/day and 1.5 mg/day. Every patient takes 3 capsules once daily at the same time of the day for the whole study period.
The Laqunimod Treatment Arms are as follows: • 1.5 mg LAQ/day: patients randomized to laquinimod 1.5 mg qd (i.e., once daily) treatment arm receive 3 capsules of 0.5 mg laquinimod daily. • 1.0 mg LAQ/day: patients randomized to laquinimod 1.0 mg qd treatment arm receive 2 capsules of 0.5 mg laquinimod and 1 capsule of matching placebo daily. • 0.5 mg LAQ/day: patients randomized to laquinimod 0.5 mg qd treatment arm receive 1 capsule of 0.5 mg laquinimod and 2 capsules of matching placebo daily.
The 0.5 mg laquinimod capsules were prepared using 0.534 mg of laquinimod sodium per capsule (which is equivalent to 0.5 mg of laquinimod acid). The capsules were prepared using a blend proportional to the 0.6 mg capsules described in PCT International Application No. PCT/US2007/013721 (WO 2007/146248). The capsules were prepared according to the method described in PCT international Application No. PCT/US2007/013721 (WO 2007/146248), which is hereby incorporated by reference into this application.
This is a multinational, multicenter, randomized, double-blind, parallel-group, placebo-controlled study to evaluate the safety and clinical effect of daily oral administration of laquinimod (0.5 mg, 1.0 mg, or 1.5 mg) in patients with HD.
Patients are treated with laquinimod for 12 months, and safety and efficacy are assessed after 1, 3, 6, 9 and 12 months of treatment. Eligible subjects are randomized in a 1:1:1:1 ratio into one of the following treatment arms: • 1. Laquinimod capsule 0.5 mg (Total of 0.5 mg) • 2. Laquinimod capsules 0.5 mg×2 (Total of 1.0 mg) • 3. Laquinimod capsules 0.5 mg×3 (Total of 1.5 mg) • 4. Matching placebo
The following assessments are performed at the specified time points: • 1. Eligibility criteria is reviewed and confirmed at screening and baseline. • 2. Vital signs are measured at each study visit. • 3. A physical examination is performed at each study visit. • 4. The following safety clinical laboratory tests are performed: • a) Complete blood count (CBC) with differential at each study visit. • b) Serum chemistry (including electrolytes, liver enzymes, urea, creatinine, glucose, total protein, albumin, direct and total bilirubin, Creatinephosphokinase (CPK), serum conventional C-reactive protein (CRP), fibrinogen and pancreatic amylase)—at all scheduled visits. […]

[1] = tested on: patients with relapsing remitting MS; details: after 1 year of treatment; cited from earlier work
[2] = 0.5, 1.0 and 1.5 mg/day oral vs Placebo Arm, 12 months

T1 sequence (P08684 whole entry): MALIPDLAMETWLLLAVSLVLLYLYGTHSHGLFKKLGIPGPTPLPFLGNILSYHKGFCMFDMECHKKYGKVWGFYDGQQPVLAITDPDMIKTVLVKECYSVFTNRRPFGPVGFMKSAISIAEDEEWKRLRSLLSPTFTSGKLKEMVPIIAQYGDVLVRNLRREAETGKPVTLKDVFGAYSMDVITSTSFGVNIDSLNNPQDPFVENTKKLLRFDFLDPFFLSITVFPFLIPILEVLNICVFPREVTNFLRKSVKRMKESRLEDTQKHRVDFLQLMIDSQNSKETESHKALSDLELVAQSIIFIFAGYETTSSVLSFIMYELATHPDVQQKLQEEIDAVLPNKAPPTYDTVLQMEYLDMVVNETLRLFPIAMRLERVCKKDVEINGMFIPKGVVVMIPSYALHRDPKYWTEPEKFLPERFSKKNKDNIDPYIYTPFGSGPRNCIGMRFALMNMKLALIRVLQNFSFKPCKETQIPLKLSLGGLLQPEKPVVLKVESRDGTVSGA

CCN(C(=O)c1c(O)c2c(Cl)cccc2n(C)c1=O)c1ccccc1 [laquinimod]
Vd (clinical): ~10 L | fraction unbound (clinical): < 0.02 | half-life (clinical): ~80 h | bioavailability (clinical; po): ~90% | oral clearance (clinical; po): ~0.09 L/h | metabolism by CYP3A4 in the liver (CYP3A4): extensively metabolized | Progression (rate of change) of CIBIC-Plus global score (patients with HD; [2]): slower | Progression (rate of change) of HADS (patients with HD; [2]): slower | Progression (rate of change) of PBA (short) (patients with HD; [2]): slower | Progression (rate of change) of Physical Performance Test (PPT) score (patients with HD; [2]): slower | Progression (rate of change) of Q-motor assessments score (patients with HD; [2]): slower | Progression (rate of change) of UHDRS-FA score (patients with HD; [2]): slower | Progression (rate of change) of UHDRS-TMS (patients with HD; [2]): slower | Progression (rate of change) of cognitive assessment battery (CAB) (patients with HD; [2]): slower | Progression (rate of change) of deterioration of functional capacity, UHDRS-TFC score (patients with HD; [2]): slower | Progression (rate of change) of work productivity and quality of life (HD-QoL) (patients with HD; [2]): slower | Progression (rate of change) of brain atrophy (whole brain, caudate, white matter, ventricular volume) (patients with HD; 0.5, 1.0 and 1.5 mg/day oral vs Placebo Arm, MRI, 12 months): slower | treatment of symptomatic early HD patients (patients with HD; 0.5, 1.0 and 1.5 mg/day oral, UHDRS-TMS >5 and/or UHDRS-TFC ≧8 at baseline): effective | effect on brain atrophy and disability progression [1]: benefit
